Assay results as given in ChEMBL document CHEMBL1201862, “PubChem BioAssay data set” (2004).
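Protocol summary: plate cells (96-well), add compound at 5 concentrations, incubate 48 h, interpolate endpoints linearly. GI50 = concentration required for 50% inhibition of growth.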 Active and inactive are the calls of the source. Cut-off read from the data, not from the text of the source: active = GI50 up to about 1.1 µM and inactive = higher.

Legend:
Assay in all cases: DTP human tumour cell line panel, 48 h
786-0 = tested on: 786-0
A498 = tested on: A498
A549 = tested on: A549
ACHN = tested on: ACHN
CAKI-1 = tested on: CAKI-1
CCRF-CEM = tested on: CCRF-CEM
COLO 205 = tested on: COLO 205
DLD-1 = tested on: DLD-1
DMS-273 = tested on: DMS-273
EKVX = tested on: EKVX
HCC 2998 = tested on: HCC 2998
HCT-116 = tested on: HCT-116
HCT-15 = tested on: HCT-15
HL-60 = tested on: HL-60
HOP-18 = tested on: HOP-18
HOP-62 = tested on: HOP-62
HOP-92 = tested on: HOP-92
HT-29 = tested on: HT-29
IGROV-1 = tested on: IGROV-1
K562 = tested on: K562
KM-20L2 = tested on: KM-20L2
KM12 = tested on: KM12
LOX IMVI = tested on: LOX IMVI
LXFL 529 = tested on: LXFL 529
M14 = tested on: M14
M19-MEL = tested on: M19-MEL
MOLT-4 = tested on: MOLT-4
Malme-3M = tested on: Malme-3M
NCI-H226 = tested on: NCI-H226
NCI-H23 = tested on: NCI-H23
NCI-H460 = tested on: NCI-H460
NCI-H522 = tested on: NCI-H522
OVCAR-3 = tested on: OVCAR-3
OVCAR-4 = tested on: OVCAR-4
OVCAR-5 = tested on: OVCAR-5
OVCAR-8 = tested on: OVCAR-8
RPMI-8226 = tested on: RPMI-8226
RXF 393 = tested on: RXF 393
RXF 631 = tested on: RXF 631
SF-268 = tested on: SF-268
SF-295 = tested on: SF-295
SF-539 = tested on: SF-539
SK-MEL-28 = tested on: SK-MEL-28
SK-MEL-2 = tested on: SK-MEL-2
SK-MEL-5 = tested on: SK-MEL-5
SK-OV-3 = tested on: SK-OV-3
SN12C = tested on: SN12C
SNB-19 = tested on: SNB-19
SNB-75 = tested on: SNB-75
SNB-78 = tested on: SNB-78
SR = tested on: SR
SW-620 = tested on: SW-620
TK-10 = tested on: TK-10
U-251 = tested on: U-251
UACC-257 = tested on: UACC-257
UACC-62 = tested on: UACC-62
UO-31 = tested on: UO-31
DMS-114 = tested on: DMS-114

## CCCCCCN(CCCCCC)C1=CC(=O)C(=O)c2ccccc21
786-0
  GI50: 16.7 µM (inactive)
A498
  GI50: 26.5 µM (inactive)
A549
  GI50: 17.1 µM (inactive)
ACHN
  GI50: 17 µM (inactive)
CAKI-1
  GI50: 15 µM (inactive)
CCRF-CEM
  GI50: 14.9 µM (inactive)
COLO 205
  GI50: 16.7 µM (inactive)
DLD-1
  GI50: 15.2 µM (inactive)
DMS-273
  GI50: 19.8 µM (inactive)
EKVX
  GI50: 14.6 µM (inactive)
HCC 2998
  GI50: 20.9 µM (inactive)
HCT-116
  GI50: 17.5 µM (inactive)
HCT-15
  GI50: 17.7 µM
HL-60
  GI50: 10.1 µM (inactive)
HOP-18
  GI50: 16.1 µM (inactive)
HOP-62
  GI50: 18.7 µM (inactive)
HOP-92
  GI50: 14.5 µM (inactive)
HT-29
  GI50: 15.1 µM (inactive)
IGROV-1
  GI50: 17.2 µM (inactive)
K562
  GI50: 17.1 µM (inactive)
KM-20L2
  GI50: 18.2 µM (inactive)
KM12
  GI50: 17.6 µM (inactive)
LOX IMVI
  GI50: 8.49 µM (inactive)
LXFL 529
  GI50: 19.3 µM (inactive)
M14
  GI50: 18.3 µM (inactive)
M19-MEL
  GI50: 2.26 µM (inactive)
MOLT-4
  GI50: 18.7 µM (inactive)
Malme-3M
  GI50: 21.3 µM (inactive)
NCI-H226
  GI50: 17.3 µM (inactive)
NCI-H23
  GI50: 11.5 µM (inactive)
NCI-H460
  GI50: 17.3 µM (inactive)
NCI-H522
  GI50: 11.6 µM (inactive)
OVCAR-3
  GI50: 3.55 µM (inactive)
OVCAR-4
  GI50: 15.4 µM (inactive)
OVCAR-5
  GI50: 19.1 µM (inactive)
OVCAR-8
  GI50: 16.1 µM (inactive)
RPMI-8226
  GI50: 16.7 µM (inactive)
RXF 393
  GI50: 25.1 µM (inactive)
RXF 631
  GI50: 14.7 µM (inactive)
SF-268
  GI50: 18.7 µM (inactive)
SF-295
  GI50: 15.7 µM (inactive)
SF-539
  GI50: 17.2 µM (inactive)
SK-MEL-28
  GI50: 17.6 µM (inactive)
SK-MEL-2
  GI50: 18.7 µM (inactive)
SK-MEL-5
  GI50: 17.2 µM (inactive)
SK-OV-3
  GI50: 17.7 µM (inactive)
SN12C
  GI50: 16.4 µM (inactive)
SNB-19
  GI50: 16.1 µM (inactive)
SNB-75
  GI50: 16.8 µM (inactive)
SNB-78
  GI50: 23 µM (inactive)
SR
  GI50: 15.8 µM (inactive)
SW-620
  GI50: 14.2 µM (inactive)
TK-10
  GI50: 21.7 µM (inactive)
U-251
  GI50: 15.8 µM (inactive)
UACC-257
  GI50: 15.2 µM (inactive)
UACC-62
  GI50: 16.5 µM (inactive)
UO-31
  GI50: 13.4 µM (inactive)

## C=CC1C2=C(C(=O)NCC2)C2OC(O)C3=C(CCNC3=O)C2C1C (stereo not drawn)
A549
  GI50: > 100 µM (inactive)
ACHN
  GI50: > 100 µM (inactive)
CCRF-CEM
  GI50: > 100 µM (inactive)
DMS-114
  GI50: > 100 µM (inactive)
EKVX
  GI50: > 100 µM (inactive)
HCT-116
  GI50: > 100 µM (inactive)
HL-60
  GI50: > 100 µM (inactive)
HOP-92
  GI50: > 100 µM (inactive)
IGROV-1
  GI50: > 100 µM (inactive)
KM12
  GI50: > 100 µM (inactive)
MOLT-4
  GI50: > 100 µM (inactive)
NCI-H23
  GI50: > 100 µM (inactive)
NCI-H522
  GI50: > 100 µM (inactive)
OVCAR-5
  GI50: > 100 µM (inactive)
RXF 393
  GI50: > 100 µM (inactive)
RXF 631
  GI50: > 100 µM (inactive)
SF-268
  GI50: > 100 µM (inactive)
SK-MEL-28
  GI50: > 100 µM (inactive)
SK-OV-3
  GI50: > 100 µM (inactive)
SNB-19
  GI50: > 100 µM (inactive)
SNB-78
  GI50: > 100 µM (inactive)
SR
  GI50: > 100 µM (inactive)
TK-10
  GI50: > 100 µM (inactive)
U-251
  GI50: > 100 µM (inactive)
UACC-62
  GI50: > 100 µM (inactive)
UO-31
  GI50: > 100 µM (inactive)
